Laboratory results: PMC5610480, “Original Chemical Series of Pyrimidine Biosynthesis Inhibitors That Boost the Antiviral Interferon Response” (Antimicrobial Agents and Chemotherapy, 2017)
Like-named read-outs stand apart in the source and are kept apart here.

Experiments:
[1] = test system: de novo pyrimidine biosynthesis; test: Intracellular nucleoside/nucleotide and UDP-sugar levels by HPLC; type: cell-based, human
[2] = test system: MV-Luc; set-up: method as in PMID 25558988; details: HEK-293T cells; previously reported ref 9; read-out: IC50, inhibition of MV-Luc; cited from earlier work
[3] = test system: ISRE-luciferase reporter gene; test: ISRE-luciferase induction in STING-37 reporter cells; details: STING-37 cells, 24 h, increasing doses
[4] = test system: MV-Luc; test: microbe, parasite or virus in culture; type: cell-based, measles virus (MV); details: for IC50: Measles morbillivirus, HEK-293T, 24 h, read-out: IC50 (μM), inhibition of MV-Luc; for antiviral potency relative to DD363: MV-Luc IC50, fold higher than for DD363
[5] = in vitro; details: human
[6] = test system: CHIKV expressing Renilla luciferase; test: microbe, parasite or virus in culture; type: cell-based; details: Chikungunya virus, HEK-293T, 24 h, read-out: IC50, CHIKV Renilla luciferase
[7] = test system: RIG-I; test: RT-qPCR gene expression in STING-37 cells: RIG-I; type: cell-based, human; details: 30 μM, 24 h, DMSO None = 1
Procedure: (§1) To further document the consequences of DD778 treatment on the cellular response to ssRNA, mRNA levels for RIG-I, MDA5, oligoadenylate synthase-like protein (OASL), IFN-α4, IFN-β, IFN-λ1, and IFN-λ2/3 were determined by reverse transcription-quantitative PCR (RT-qPCR). […] Furthermore, the effects of DD778 on the expression of these genes could be reversed by the addition of uridine in culture medium. […] In parallel, we measured in culture supernatants the concentrations of IFN-β, IFN-λ1, IFN-λ2/3, and interferon-inducible protein of 10 kDa (IP-10), which is a well-characterized IFN-inducible chemokine (Fig. 7C). […] This illustrates an original mechanism by which cells can communicate with neighbors on their metabolic status.
(§2) Upper images correspond to representative experiments.

[8] = test system: MDA5; test: RT-qPCR gene expression in STING-37 cells: MDA5; type: cell-based, human; details: 30 μM, 24 h, DMSO None = 1
Procedure: as §1, §2

[9] = test system: OASL; test: RT-qPCR gene expression in STING-37 cells: OASL; type: cell-based, human; details: 30 μM, 24 h, DMSO None = 1
Procedure: as §1, §2

[10] = test system: IFN-α4; test: RT-qPCR gene expression in STING-37 cells: IFN-α4; type: cell-based, human; details: 30 μM, 24 h, DMSO None = 1
Procedure: as §1, §2

[11] = test system: IFN-β; test: RT-qPCR gene expression in STING-37 cells: IFN-β; type: cell-based, human; details: 30 μM, 24 h, DMSO None = 1
Procedure: as §1, §2

[12] = test system: IFN-λ1; test: RT-qPCR gene expression in STING-37 cells: IFN-λ1; type: cell-based, human; details: 30 μM, 24 h, DMSO None = 1
Procedure: as §1, §2

[13] = test system: IFN-λ2/3; test: RT-qPCR gene expression in STING-37 cells: IFN-λ2/3; type: cell-based, human; details: 30 μM, 24 h, DMSO None = 1
Procedure: as §1, §2

[14] = test system: MDA5; test: Western blotting of MDA5 in STING-37 cells
[15] = test system: RIG-I; test: Western blotting of RIG-I in STING-37 cells
[16] = test system: IFN-β, IFN-λ1, IFN-λ2/3, and IP-10; test: Cytokines in culture supernatants, LEGENDplex
[17] = test system: ISRE-luciferase reporter gene; test: ISRE-luciferase response to MV infection in STING-37 cells; details: 30 μM added 9 h after infection, read 16 h later
[18] = test system: MV-Luc; test: Complementation of MV-Luc inhibition with uridine, DHO or orotate; details: 24 h
[19] = test system: IFN biological activity; test: IFN biological activity of culture supernatants on fresh STING-37 cells; details: no ssRNA, supernatants at 48 h
[20] = test system: DHODH; set-up: method as in PMID 20183850; details: read-out: IC50 on the recombinant enzyme; cited from earlier work
[21] = MV MOI 2, 30 μM added at 9 h, 39 h more

Cc1c(-c2ccc(-c3ccccc3F)cc2)nc2ccc(F)cc2c1C(=O)O [Brequinar, brequinar, reference compound]
inhibition of de novo pyrimidine biosynthesis ([1]; submicromolar concentrations, 24 h): inhibited | IC50 [2]: 0.04 µM | induction of the ISRE-luciferase gene (compound alone) [3]: induced

O=C1CCCc2occ(-c3cccc(Cl)c3)c21 [DD264, reference compound]
IC50 [4]: 15 ± 2 µM | CC50 at 24 h [5]: > 80 µM

O=c1oc2ccccc2c2c1C(c1cccc(Cl)c1)C([N+](=O)[O-])O2 (centres unmarked) [DD311]
IC50 [4]: 47 ± 4 µM | CC50 at 24 h [5]: > 50 µM

O=c1oc2ccc(Cl)cc2c2c1C(c1c[nH]c3ccccc13)C([N+](=O)[O-])O2 (centres unmarked) [DD771]
antiviral potency relative to DD363 [4]: 2- to 9 fold | IC50 [4]: 1.7 ± 0.4 µM | CC50 at 24 h [5]: > 50 µM

Cc1cc2oc(=O)c3c(c2cc1C)OC([N+](=O)[O-])C3c1c[nH]c2ccccc12 (centres unmarked) [DD775]
IC50 [4]: 1.7 ± 0.4 µM | CC50 at 24 h [5]: > 50 µM

O=c1oc2ccc(F)cc2c2c1C(c1c[nH]c3ccccc13)C([N+](=O)[O-])O2 (centres unmarked) [DD776]
antiviral potency relative to DD363 [4]: 2- to 9 fold | IC50 [4]: 3.8 ± 0.8 µM | CC50 at 24 h [5]: > 50 µM

Cc1ccc2oc(=O)c3c(c2c1)OC([N+](=O)[O-])C3c1c[nH]c2ccccc12 (centres unmarked) [DD778]
antiviral potency relative to DD363 [4]: 2- to 9 fold | IC50 [4]: 2.9 ± 0.3 µM | IC50 [6]: 1.4 ± 0.2 µM | intracellular UDP-Gal level ([1]; HEK-293T cells treated 24 h): collapsed | intracellular UDP-GalNac level ([1]; HEK-293T cells treated 24 h): maintained at high levels | purine levels (A and G) ([1]; HEK-293T cells treated 24 h): unaffected | uridine (U) and cytidine (C) levels ([1]; HEK-293T cells treated 24 h): collapsed | RIG-I expression level (RT-qPCR) ([7]; ssRNA (60 ng/well)): 12±5 | RIG-I expression level (RT-qPCR) ([7]; ssRNA (120 ng/well)): 57±9 | RIG-I expression level (RT-qPCR) ([7]; ssRNA: None): 1.3±0.4 | MDA5 expression level (RT-qPCR) ([8]; ssRNA (60 ng/well)): 5±1 | MDA5 expression level (RT-qPCR) ([8]; ssRNA (120 ng/well)): 23±2 | MDA5 expression level (RT-qPCR) ([8]; ssRNA: None): 1.1±0.1 | OASL expression level (RT-qPCR) ([9]; ssRNA (60 ng/well)): 17±3 | OASL expression level (RT-qPCR) ([9]; ssRNA (120 ng/well)): 111±21 | OASL expression level (RT-qPCR) ([9]; ssRNA: None): 3±2 | IFN-α4 expression level (RT-qPCR) ([10]; ssRNA (60 ng/well)): 1.3±0.7 | IFN-α4 expression level (RT-qPCR) ([10]; ssRNA (120 ng/well)): 1.4±0.6 | IFN-α4 expression level (RT-qPCR) ([10]; ssRNA: None): 1.3±0.7 | IFN-β expression level (RT-qPCR) ([11]; ssRNA (60 ng/well)): 4±3 | IFN-β expression level (RT-qPCR) ([11]; ssRNA (120 ng/well)): 17±5 | IFN-β expression level (RT-qPCR) ([11]; ssRNA: None): 1.5±0.8 | IFN-λ1 expression level (RT-qPCR) ([12]; ssRNA (60 ng/well)): 14±3 | IFN-λ1 expression level (RT-qPCR) ([12]; ssRNA (120 ng/well)): 130±10 | IFN-λ1 expression level (RT-qPCR) ([12]; ssRNA: None): 1.9±0.6 | IFN-λ2/3 expression level (RT-qPCR) ([13]; ssRNA (60 ng/well)): 7±1 | IFN-λ2/3 expression level (RT-qPCR) ([13]; ssRNA (120 ng/well)): 55±12 | IFN-λ2/3 expression level (RT-qPCR) ([13]; ssRNA: None): 1.4±0.7 | CC50 at 24 h [5]: 207 ± 20 µM | MDA5 protein expression, ssRNA-transfected cells ([14]; 30 μM, 48 h): promoted the expression | effects on MDA5 protein expression, MV-infected cells [14, 21]: limited | RIG-I protein expression, ssRNA-transfected cells ([15]; 30 μM, 48 h): promoted the expression | RIG-I protein expression, MV-infected cells [15, 21]: boosted | expression of IFN-β, IFN-λ1, IFN-λ2/3, and IP-10 in supernatants, ssRNA-stimulated cells ([16]; 30 μM, 120 ng ssRNA, 48 h): increased the expression | IFN-β expression in supernatants, MV-infected cells [16, 21]: not statistically enhanced | expression of IFN-λ1, IFN-λ2/3, and IP-10 in supernatants, MV-infected cells [16, 21]: efficiently increased | induction of the ISRE-luciferase gene (compound alone) [3]: induced | cellular response to MV infection (ISRE-luciferase) [17]: efficiently boosted | effect of DHO on viral replication in treated cells ([18]; DD778 10 μM, DHO 3 mM): no effect | effect of uridine and orotate on viral replication in treated cells ([18]; DD778 10 μM, uridine 130 μM, orotate 3 mM): restore viral replication | IFN activity in supernatants of cells treated with compound alone [19]: did not show any IFN activity

O=c1oc2ccc(Cl)cc2c2c1C(c1c[nH]c3ccc(Br)cc13)C([N+](=O)[O-])O2 (centres unmarked) [DD783]
IC50 [4]: 42 ± 7 µM | CC50 at 24 h [5]: > 50 µM

Cc1ccc2oc(=O)c3c(c2c1)OC([N+](=O)[O-])C3c1c[nH]c2ccc(Br)cc12 (centres unmarked) [DD784]
IC50 [4]: 40 ± 7 µM | CC50 at 24 h [5]: > 50 µM

O=C1C(=O)c2ccccc2C2=C1C(c1c[nH]c3ccccc13)C([N+](=O)[O-])O2 (centres unmarked) [DD785]
IC50 [4]: > 50 µM | CC50 at 24 h [5]: > 50 µM

Cc1cc2c(c(=O)o1)C(c1c[nH]c3ccccc13)C([N+](=O)[O-])O2 (centres unmarked) [DD786]
IC50 [4]: > 50 µM | CC50 at 24 h [5]: > 50 µM | induction of the ISRE-luciferase gene (compound alone) [3]: unable to do so

Cn1c(=O)c2c(c3ccccc31)OC([N+](=O)[O-])C2c1c[nH]c2ccccc12 (centres unmarked) [DD787]
IC50 [4]: 16 ± 3 µM | CC50 at 24 h [5]: > 50 µM

O=c1oc2ccccc2c(O)c1Cc1c(O)c2ccccc2oc1=O [Dicoumarol, dicoumarol, reference compound]
IC50 [4]: 12 ± 0.3 µM | IC50 [20]: 6.6 µM | induction of the ISRE-luciferase gene (compound alone) [3]: induced | antiviral effect when culture medium is supplemented with uridine ([18]; uridine 130 μM): fully reversed

Cn1cc(C2c3c(c4cc(Cl)ccc4oc3=O)OC2[N+](=O)[O-])c2ccccc21 (centres unmarked) [JP10]
IC50 [4]: > 50 µM | CC50 at 24 h [5]: > 50 µM

Cc1[nH]c2ccccc2c1C1c2c(c3cc(Cl)ccc3oc2=O)OC1[N+](=O)[O-] (centres unmarked) [JP25]
IC50 [4]: 47 ± 7 µM | CC50 at 24 h [5]: > 50 µM

O=c1oc2ccccc2c(O)c1C(C[N+](=O)[O-])c1c[nH]c2ccccc12 (centres unmarked) [JP39]
IC50 [4]: > 50 µM | CC50 [5]: > 50 µM

O=c1oc2ccccc2c2c1C(c1c[nH]c3ccccc13)CO2 (centres unmarked) [JP42]
IC50 [4]: 16 ± 3 µM | CC50 at 24 h [5]: > 50 µM

O=c1oc2ccc(Cl)cc2c2c1C(c1c[nH]c3ccccc13)CO2 (centres unmarked) [JP46]
decrease of antiviral potency relative to DD771 ([4]; MV-Luc IC50): 9 fold | IC50 [4]: 16 ± 4 µM | CC50 at 24 h [5]: 50 ± 8 µM

CCc1ccc2oc(=O)c3c(c2c1)OC([N+](=O)[O-])C3c1c[nH]c2ccccc12 (centres unmarked) [JP49]
antiviral potency relative to DD363 [4]: 2- to 9 fold | IC50 [4]: 5.3 ± 1.1 µM | CC50 at 24 h [5]: > 50 µM

O=c1oc2ccc(Br)cc2c2c1C(c1c[nH]c3ccccc13)C([N+](=O)[O-])O2 (centres unmarked) [JP52]
antiviral potency relative to DD363 [4]: 2- to 9 fold | IC50 [4]: 1.2 ± 0.2 µM | CC50 at 24 h [5]: > 50 µM

C/C(O)=C(\C#N)C(=O)Nc1ccc(C(F)(F)F)cc1 [Teriflunomide, teriflunomide]
IC50 [2]: 5 µM
